Data taken from PMC5218480 (PLoS ONE, 2017).

System: MV-4-11 cells
Assay: Gene expression microarray analysis (Affymetrix PrimeView) and GSEA
Type: cell-based, human
Design: RFU PODN (11730768_x_at) / Fold change /veh PODN (11730768_x_at) / RFU LINC00158 (11744669_a_at) / Fold change /veh LINC00158 (11744669_a_at) / RFU DUSP10 (11751237_a_at) / Fold change /veh DUSP10 (11751237_a_at) / RFU ID3 (11757404_x_at) / Fold change /veh ID3 (11757404_x_at) / RFU PLEKHG5 (11737974_s_at) / Fold change /veh PLEKHG5 (11737974_s_at) / RFU LRRC4B (11730491_at) / Fold change /veh LRRC4B (11730491_at) / RFU GIMAP4 (11747438_a_at) / Fold change /veh GIMAP4 (11747438_a_at) / RFU KRT8 (11758183_x_at) / Fold change /veh KRT8 (11758183_x_at) / RFU CNN1 (11734310_a_at) / Fold change /veh CNN1 (11734310_a_at) / RFU VPS37D (11726825_at) / Fold change /veh VPS37D (11726825_at) / RFU C10orf10 (11716522_x_at) / Fold change /veh C10orf10 (11716522_x_at) / RFU KIR2DL2 /// KIR2DL4 /// KIR2DL5A /// KIR2DL5B /// KIR2DS1 /// KIR2DS2 /// KIR2DS3 /// KIR2DS4 /// KIR3DL3 /// KIR3DL3 /// KIR3DS1 (11738374_at) / Fold change /veh KIR2DL2 /// KIR2DL4 /// KIR2DL5A /// KIR2DL5B /// KIR2DS1 /// KIR2DS2 /// KIR2DS3 /// KIR2DS4 /// KIR3DL3 /// KIR3DL3 /// KIR3DS1 (11738374_at) / RFU C1QL1 (11718748_at) / Fold change /veh C1QL1 (11718748_at) / RFU TMPRSS4 (11747572_a_at) / Fold change /veh TMPRSS4 (11747572_a_at) / RFU HAMP (11756126_x_at) / Fold change /veh HAMP (11756126_x_at) / RFU RNFT2 (11725882_a_at) / Fold change /veh RNFT2 (11725882_a_at) / RFU NR4A2 (11747474_a_at) / Fold change /veh NR4A2 (11747474_a_at) / RFU ABCC12 (11746883_a_at) / Fold change /veh ABCC12 (11746883_a_at) / RFU TMEM136 (11760407_x_at) / Fold change /veh TMEM136 (11760407_x_at) / RFU CLDN22 /// WWC2 (11732394_at) / Fold change /veh CLDN22 /// WWC2 (11732394_at) / RFU HLA-DPB1 (11760878_x_at) / Fold change /veh HLA-DPB1 (11760878_x_at) / RFU SPINT1 (11716480_a_at) / Fold change /veh SPINT1 (11716480_a_at) / RFU GAP43 (11754022_s_at) / Fold change /veh GAP43 (11754022_s_at) / RFU A4GNT (11735810_at) / Fold change /veh A4GNT (11735810_at) / RFU PRB3 (11715151_x_at) / Fold change /veh PRB3 (11715151_x_at) / RFU TUBB4B (11761932_at) / Fold change /veh TUBB4B (11761932_at) / RFU CAPN14 (11732068_a_at) / Fold change /veh CAPN14 (11732068_a_at) / RFU TMCC2 (11721928_a_at) / Fold change /veh TMCC2 (11721928_a_at) / RFU IRGQ (11745062_a_at) / Fold change /veh IRGQ (11745062_a_at) / RFU FAM174B (11720279_a_at) / Fold change /veh FAM174B (11720279_a_at) / RFU TMPRSS4 (11748680_a_at) / Fold change /veh TMPRSS4 (11748680_a_at) / RFU FAM212B (11763350_a_at) / Fold change /veh FAM212B (11763350_a_at) / RFU PLEKHG5 (11743358_a_at) / Fold change /veh PLEKHG5 (11743358_a_at) / RFU ZSCAN30 (11745921_a_at) / Fold change /veh ZSCAN30 (11745921_a_at) / RFU CMKLR1 (11741424_a_at) / Fold change /veh CMKLR1 (11741424_a_at) / RFU LOC101060620 /// MAPK8IP1 (11723275_at) / Fold change /veh LOC101060620 /// MAPK8IP1 (11723275_at) / RFU SPTSSB (11747773_x_at) / Fold change /veh SPTSSB (11747773_x_at) / RFU PRSS12 (11739890_at) / Fold change /veh PRSS12 (11739890_at) / RFU BIN1 (11741810_x_at) / Fold change /veh BIN1 (11741810_x_at) / RFU WNT11 (11732464_a_at) / Fold change /veh WNT11 (11732464_a_at) / RFU C10orf10 (11716521_a_at) / Fold change /veh C10orf10 (11716521_a_at) / RFU C5orf56 (11738089_at) / Fold change /veh C5orf56 (11738089_at) / RFU CYB561 (11721691_x_at) / Fold change /veh CYB561 (11721691_x_at) / RFU ANKRD19P (11752326_a_at) / Fold change /veh ANKRD19P (11752326_a_at) / RFU OR2T12 /// OR2T33 /// OR2T8 (11738714_s_at) / Fold change /veh OR2T12 /// OR2T33 /// OR2T8 (11738714_s_at) / RFU VCAN (11748164_a_at) / Fold change /veh VCAN (11748164_a_at) / RFU JSRP1 (11732532_at) / Fold change /veh JSRP1 (11732532_at) / RFU KRTAP10-11 (11738290_x_at) / Fold change /veh KRTAP10-11 (11738290_x_at) / RFU MYO3A (11730013_a_at) / Fold change /veh MYO3A (11730013_a_at) / RFU EBF3 (11725865_a_at) / Fold change /veh EBF3 (11725865_a_at) / RFU CAMK2N1 (11719241_x_at) / Fold change /veh CAMK2N1 (11719241_x_at) / RFU C5orf56 (11738088_a_at) / Fold change /veh C5orf56 (11738088_a_at) / RFU OLFML3 (11715873_a_at) / Fold change /veh OLFML3 (11715873_a_at) / RFU LOC100653217 /// NTM (11731650_a_at) / Fold change /veh LOC100653217 /// NTM (11731650_a_at) / RFU MAPK11 (11762145_a_at) / Fold change /veh MAPK11 (11762145_a_at) / RFU FIZ1 (11724087_x_at) / Fold change /veh FIZ1 (11724087_x_at) / RFU OASL (11726364_x_at) / Fold change /veh OASL (11726364_x_at) / RFU SOX15 (11748057_x_at) / Fold change /veh SOX15 (11748057_x_at) / RFU CD79A (11719716_a_at) / Fold change /veh CD79A (11719716_a_at) / RFU HIST1H1D (11736915_at) / Fold change /veh HIST1H1D (11736915_at) / RFU CASKIN2 (11723855_a_at) / Fold change /veh CASKIN2 (11723855_a_at) / RFU LOC730098 (11760151_x_at) / Fold change /veh LOC730098 (11760151_x_at) / RFU OR4N2 (11742367_at) / Fold change /veh OR4N2 (11742367_at) / RFU PRRT2 (11749266_a_at) / Fold change /veh PRRT2 (11749266_a_at) / RFU SNX32 (11753110_a_at) / Fold change /veh SNX32 (11753110_a_at) / RFU CDHR5 (11726645_a_at) / Fold change /veh CDHR5 (11726645_a_at) / RFU RCAN1 (11760418_a_at) / Fold change /veh RCAN1 (11760418_a_at) / RFU FAM167A (11723789_a_at) / Fold change /veh FAM167A (11723789_a_at) / RFU FAM26E (11764081_at) / Fold change /veh FAM26E (11764081_at) / RFU ISYNA1 (11749810_s_at) / Fold change /veh ISYNA1 (11749810_s_at) / RFU ACY1 (11761880_at) / Fold change /veh ACY1 (11761880_at) / RFU 11764098_at / Fold change /veh 11764098_at / RFU SAMD14 (11745864_x_at) / Fold change /veh SAMD14 (11745864_x_at) / RFU NPB (11741838_a_at) / Fold change /veh NPB (11741838_a_at) / RFU TMPRSS6 (11731388_a_at) / Fold change /veh TMPRSS6 (11731388_a_at) / RFU KRTAP10-2 (11738614_at) / Fold change /veh KRTAP10-2 (11738614_at) / RFU ARHGAP8 /// PRR5-ARHGAP8 (11727945_x_at) / Fold change /veh ARHGAP8 /// PRR5-ARHGAP8 (11727945_x_at) / RFU KRTAP5-7 /// NADSYN1 (11734609_at) / Fold change /veh KRTAP5-7 /// NADSYN1 (11734609_at) / RFU RASL12 (11751679_a_at) / Fold change /veh RASL12 (11751679_a_at) / RFU CDKN2B (11736163_a_at) / Fold change /veh CDKN2B (11736163_a_at) / RFU PRF1 (11729649_at) / Fold change /veh PRF1 (11729649_at) / RFU, ZNF638 /// ZNF638-IT1 / Fold change vs veh, ZNF638 /// ZNF638-IT1 / RFU, PANK3 / Fold change vs veh, PANK3 / RFU, SH3YL1 / Fold change vs veh, SH3YL1 / RFU, ZEB2 / Fold change vs veh, ZEB2 / RFU, NRIP1 / Fold change vs veh, NRIP1 / RFU, PTTG1IP / Fold change vs veh, PTTG1IP / RFU, CAPN2 / Fold change vs veh, CAPN2 / RFU, MED14 / Fold change vs veh, MED14 / RFU, SNORA58 / Fold change vs veh, SNORA58 / RFU, C1orf63 / Fold change vs veh, C1orf63 / RFU, LRRFIP1 / Fold change vs veh, LRRFIP1 / RFU, NDUFAF7 / Fold change vs veh, NDUFAF7 / RFU, SLC12A2 / Fold change vs veh, SLC12A2 / RFU, IBTK / Fold change vs veh, IBTK / RFU, ESF1 / Fold change vs veh, ESF1 / Fold change vs veh, TMEM50B / RFU, TAOK1 / Fold change vs veh, TAOK1 / RFU, ACBD3 / Fold change vs veh, ACBD3 / RFU, TMA16 / Fold change vs veh, TMA16 / RFU, RWDD3 / Fold change vs veh, RWDD3 / RFU, BCAT1 / Fold change vs veh, BCAT1 / RFU, EDEM3 / Fold change vs veh, EDEM3 / RFU, TMEM33 / Fold change vs veh, TMEM33 / RFU, WDR75 / Fold change vs veh, WDR75 / RFU, AHCTF1 / Fold change vs veh, AHCTF1 / RFU, TFRC / Fold change vs veh, TFRC / RFU, ZDHHC17 / Fold change vs veh, ZDHHC17 / RFU, NOM1 / Fold change vs veh, NOM1 / RFU, ARL8B / Fold change vs veh, ARL8B / RFU, ZBTB11 / Fold change vs veh, ZBTB11 / RFU, TAMM41 / Fold change vs veh, TAMM41 / RFU, KIAA1704 /// LOC100996395 / Fold change vs veh, KIAA1704 /// LOC100996395 / RFU, ING1 / Fold change vs veh, ING1 / RFU, TRMT61B / Fold change vs veh, TRMT61B / RFU, FUBP3 / Fold change vs veh, FUBP3 / RFU, TP53 / Fold change vs veh, TP53 / RFU, TNKS2 / Fold change vs veh, TNKS2 / RFU, ZFP14 / Fold change vs veh, ZFP14 / RFU, ACTR2 / Fold change vs veh, ACTR2 / RFU, PPP3R1 / Fold change vs veh, PPP3R1 / RFU, PIK3R1 / Fold change vs veh, PIK3R1 / RFU, HNRNPA1 / Fold change vs veh, HNRNPA1 / RFU, RNF170 / Fold change vs veh, RNF170 / RFU, ZNF28 / Fold change vs veh, ZNF28 / RFU, RNGTT / Fold change vs veh, RNGTT / RFU, OGT / Fold change vs veh, OGT / RFU, BRD1 / Fold change vs veh, BRD1 / RFU, MARS / Fold change vs veh, MARS / RFU, ZNF655 / Fold change vs veh, ZNF655 / RFU, FAHD1 / Fold change vs veh, FAHD1 / RFU, BDP1 / Fold change vs veh, BDP1 / RFU, LRRCC1 / Fold change vs veh, LRRCC1 / RFU, ARID1A / Fold change vs veh, ARID1A / RFU, ZNF146 / Fold change vs veh, ZNF146 / RFU, ZNF330 / Fold change vs veh, ZNF330 / RFU, GPN3 / Fold change vs veh, GPN3 / RFU, C9orf123 / Fold change vs veh, C9orf123 / RFU, N4BP2L2 / Fold change vs veh, N4BP2L2 / RFU, ARFIP1 / Fold change vs veh, ARFIP1 / RFU, FAM179B / Fold change vs veh, FAM179B / RFU, BCL10 / Fold change vs veh, BCL10 / RFU, UHRF1BP1L / Fold change vs veh, UHRF1BP1L / RFU, BET1 / Fold change vs veh, BET1 / RFU, CNOT2 / Fold change vs veh, CNOT2 / RFU, ZNF268 / Fold change vs veh, ZNF268 / Fold change vs veh, ZNF507 / RFU, DGCR2 / Fold change vs veh, DGCR2 / RFU, WDSUB1 / Fold change vs veh, WDSUB1 / Fold change vs veh, HSP90B1 /// MIR3652 / RFU, ADSS / Fold change vs veh, ADSS / RFU, GK / Fold change vs veh, GK / RFU, ZNF148 / Fold change vs veh, ZNF148 / RFU, TAF9 / Fold change vs veh, TAF9 / RFU, SLC1A5 / Fold change vs veh, SLC1A5 / RFU, SLMO2 / Fold change vs veh, SLMO2 / RFU, ABCC4 / Fold change vs veh, ABCC4 / RFU, LOC101060439 /// RAP1B / Fold change vs veh, LOC101060439 /// RAP1B / RFU, RFX7 / Fold change vs veh, RFX7 / RFU, GTPBP10 / Fold change vs veh, GTPBP10 / RFU, CNEP1R1 / Fold change vs veh, CNEP1R1 / RFU, BIVM-ERCC5 /// ERCC5 / Fold change vs veh, BIVM-ERCC5 /// ERCC5 / RFU, ILF3 / Fold change vs veh, ILF3 / RFU 11762660_at / Fold change /veh 11762660_at / RFU VCAN (11757783_s_at) / Fold change /veh VCAN (11757783_s_at) / RFU DDX43 (11728927_at) / Fold change /veh DDX43 (11728927_at) / RFU KRT8 (11758188_x_at) / Fold change /veh KRT8 (11758188_x_at) / RFU NKD1 (11759106_at) / Fold change /veh NKD1 (11759106_at) / RFU SRD5A1 (11742802_a_at) / Fold change /veh SRD5A1 (11742802_a_at) / RFU TPSAB1 /// TPSB2 (11721975_s_at) / Fold change /veh TPSAB1 /// TPSB2 (11721975_s_at) / RFU GSTM3 (11746129_a_at) / Fold change /veh GSTM3 (11746129_a_at) / RFU IL23R (11737362_x_at) / Fold change /veh IL23R (11737362_x_at) / RFU TMEM51 (11727254_a_at) / Fold change /veh TMEM51 (11727254_a_at) / RFU PIWIL2 (11732686_x_at) / Fold change /veh PIWIL2 (11732686_x_at) / RFU ORM1 (11744905_x_at) / Fold change /veh ORM1 (11744905_x_at) / RFU CCDC152 (11743942_at) / Fold change /veh CCDC152 (11743942_at) / RFU ECM1 (11717891_a_at) / Fold change /veh ECM1 (11717891_a_at) / RFU IL23R (11748794_a_at) / Fold change /veh IL23R (11748794_a_at) / RFU TNFAIP8L3 (11732012_x_at) / Fold change /veh TNFAIP8L3 (11732012_x_at) / RFU MBOAT4 (11741988_at) / Fold change /veh MBOAT4 (11741988_at) / RFU 11764193_at / Fold change /veh 11764193_at / RFU TMEM53 (11763286_at) / Fold change /veh TMEM53 (11763286_at) / RFU MAGEB2 (11727129_at) / Fold change /veh MAGEB2 (11727129_at) / RFU TMEM200A (11744735_a_at) / Fold change /veh TMEM200A (11744735_a_at) / RFU CCDC152 (11751479_a_at) / Fold change /veh CCDC152 (11751479_a_at) / RFU FAM211A (11726209_a_at) / Fold change /veh FAM211A (11726209_a_at) / RFU RGS16 (11746705_a_at) / Fold change /veh RGS16 (11746705_a_at) / RFU VCAN (11755009_s_at) / Fold change /veh VCAN (11755009_s_at) / RFU RHOB (11743442_s_at) / Fold change /veh RHOB (11743442_s_at) / RFU RGS16 (11720943_a_at) / Fold change /veh RGS16 (11720943_a_at) / RFU RGS16 (11720944_at) / Fold change /veh RGS16 (11720944_at) / RFU, VPS4B / Fold change vs veh, VPS4B / RFU, CREB1 / Fold change vs veh, CREB1 / RFU, DNAJC13 / Fold change vs veh, DNAJC13 / RFU, GNAQ / Fold change vs veh, GNAQ / RFU, CDK5R1 / Fold change vs veh, CDK5R1 / RFU, ZRANB3 / Fold change vs veh, ZRANB3 / RFU, CUL4A / Fold change vs veh, CUL4A / RFU, CCNY / Fold change vs veh, CCNY / RFU, UFL1 / Fold change vs veh, UFL1 / RFU, COG3 / Fold change vs veh, COG3 / RFU, DIAPH2 / Fold change vs veh, DIAPH2 / RFU, SKA2 / Fold change vs veh, SKA2 / RFU, AFF3 / Fold change vs veh, AFF3 / RFU, LMF1 / Fold change vs veh, LMF1 / RFU, IPO11 / Fold change vs veh, IPO11 / RFU, DFFB / Fold change vs veh, DFFB / RFU, FOXP1 / Fold change vs veh, FOXP1 / RFU, CARD8 / Fold change vs veh, CARD8 / RFU, STRN3 / Fold change vs veh, STRN3 / RFU, ADK / Fold change vs veh, ADK / RFU, RASSF2 / Fold change vs veh, RASSF2 / RFU, WIPF1 / Fold change vs veh, WIPF1 / RFU, LARP1B / Fold change vs veh, LARP1B / RFU, RASA1 / Fold change vs veh, RASA1 / RFU, RB1 / Fold change vs veh, RB1 / RFU, PPFIA1 / Fold change vs veh, PPFIA1 / RFU, MAT2A / Fold change vs veh, MAT2A / RFU, CCT5 / Fold change vs veh, CCT5 / RFU, WDR92 / Fold change vs veh, WDR92 / RFU, CUX1 / Fold change vs veh, CUX1 / RFU, TTC7A / Fold change vs veh, TTC7A / RFU, TMEM135 / Fold change vs veh, TMEM135 / RFU, DEPTOR / Fold change vs veh, DEPTOR / RFU, CPM / Fold change vs veh, CPM / RFU, DNAJB6 / Fold change vs veh, DNAJB6 / RFU, CACNA2D3 / Fold change vs veh, CACNA2D3 / RFU, DTX4 / Fold change vs veh, DTX4 / RFU, TFCP2 / Fold change vs veh, TFCP2 / RFU, GMCL1 /// GMCL1P1 / Fold change vs veh, GMCL1 /// GMCL1P1 / RFU, AEBP2 / Fold change vs veh, AEBP2 / RFU, SNHG1 /// SNORD22 /// SNORD25 /// SNORD26 /// SNORD27 /// SNORD28 /// SNORD29 /// SNORD31 / Fold change vs veh, SNHG1 /// SNORD22 /// SNORD25 /// SNORD26 /// SNORD27 /// SNORD28 /// SNORD29 /// SNORD31 / Fold change (Aza/veh), C12orf56 (ProbeSet 11735607_a_at) / Fold change (ACY-1035/veh), C12orf56 (ProbeSet 11735607_a_at) / Fold change (Aza/veh), FGFR1OP (ProbeSet 11751329_s_at) / Fold change (ACY-1035/veh), FGFR1OP (ProbeSet 11751329_s_at) / Fold change (Aza/veh), VPS36 (ProbeSet 11739960_a_at) / Fold change (ACY-1035/veh), VPS36 (ProbeSet 11739960_a_at) / RFU SYPL1 (11715823_x_at) / Fold change /veh SYPL1 (11715823_x_at) / RFU IGFBP7 (11715501_s_at) / Fold change /veh IGFBP7 (11715501_s_at) / RFU REEP3 (11722064_at) / Fold change /veh REEP3 (11722064_at) / RFU IGLL1 (11728026_x_at) / Fold change /veh IGLL1 (11728026_x_at): dose or concentration left out as unconfirmed
Conditions: MV-4-11 cells, 48 hours

SMILES: Nc1ccc(-c2cccs2)cc1NC(=O)c1ccc2c(c1)cc(C1CC1)n2CCN1CCOCC1 [ACY-1035]
- RFU RGS16 (11746705_a_at): 52.79 RFU
